In US20240083897A1, “GCN2 MODULATING COMPOUNDS AND USES THEREOF” (HiberCell, Inc., priority 2021, published 2024):
Counter-ions that a name gives are not always drawn. Like-named read-outs stand apart in the source and are kept apart here.

Molecular target: GCN2 (Homo sapiens (Human), UniProt Q9P2K8)
Assay: TR-FRET biochemical assay for inhibition of GCN2
[1] = GCN2 2 nM, 100 nM GFP-eIF2a, 150 μM ATP, TR-FRET

GCN2, sequence (Q9P2K8 whole entry): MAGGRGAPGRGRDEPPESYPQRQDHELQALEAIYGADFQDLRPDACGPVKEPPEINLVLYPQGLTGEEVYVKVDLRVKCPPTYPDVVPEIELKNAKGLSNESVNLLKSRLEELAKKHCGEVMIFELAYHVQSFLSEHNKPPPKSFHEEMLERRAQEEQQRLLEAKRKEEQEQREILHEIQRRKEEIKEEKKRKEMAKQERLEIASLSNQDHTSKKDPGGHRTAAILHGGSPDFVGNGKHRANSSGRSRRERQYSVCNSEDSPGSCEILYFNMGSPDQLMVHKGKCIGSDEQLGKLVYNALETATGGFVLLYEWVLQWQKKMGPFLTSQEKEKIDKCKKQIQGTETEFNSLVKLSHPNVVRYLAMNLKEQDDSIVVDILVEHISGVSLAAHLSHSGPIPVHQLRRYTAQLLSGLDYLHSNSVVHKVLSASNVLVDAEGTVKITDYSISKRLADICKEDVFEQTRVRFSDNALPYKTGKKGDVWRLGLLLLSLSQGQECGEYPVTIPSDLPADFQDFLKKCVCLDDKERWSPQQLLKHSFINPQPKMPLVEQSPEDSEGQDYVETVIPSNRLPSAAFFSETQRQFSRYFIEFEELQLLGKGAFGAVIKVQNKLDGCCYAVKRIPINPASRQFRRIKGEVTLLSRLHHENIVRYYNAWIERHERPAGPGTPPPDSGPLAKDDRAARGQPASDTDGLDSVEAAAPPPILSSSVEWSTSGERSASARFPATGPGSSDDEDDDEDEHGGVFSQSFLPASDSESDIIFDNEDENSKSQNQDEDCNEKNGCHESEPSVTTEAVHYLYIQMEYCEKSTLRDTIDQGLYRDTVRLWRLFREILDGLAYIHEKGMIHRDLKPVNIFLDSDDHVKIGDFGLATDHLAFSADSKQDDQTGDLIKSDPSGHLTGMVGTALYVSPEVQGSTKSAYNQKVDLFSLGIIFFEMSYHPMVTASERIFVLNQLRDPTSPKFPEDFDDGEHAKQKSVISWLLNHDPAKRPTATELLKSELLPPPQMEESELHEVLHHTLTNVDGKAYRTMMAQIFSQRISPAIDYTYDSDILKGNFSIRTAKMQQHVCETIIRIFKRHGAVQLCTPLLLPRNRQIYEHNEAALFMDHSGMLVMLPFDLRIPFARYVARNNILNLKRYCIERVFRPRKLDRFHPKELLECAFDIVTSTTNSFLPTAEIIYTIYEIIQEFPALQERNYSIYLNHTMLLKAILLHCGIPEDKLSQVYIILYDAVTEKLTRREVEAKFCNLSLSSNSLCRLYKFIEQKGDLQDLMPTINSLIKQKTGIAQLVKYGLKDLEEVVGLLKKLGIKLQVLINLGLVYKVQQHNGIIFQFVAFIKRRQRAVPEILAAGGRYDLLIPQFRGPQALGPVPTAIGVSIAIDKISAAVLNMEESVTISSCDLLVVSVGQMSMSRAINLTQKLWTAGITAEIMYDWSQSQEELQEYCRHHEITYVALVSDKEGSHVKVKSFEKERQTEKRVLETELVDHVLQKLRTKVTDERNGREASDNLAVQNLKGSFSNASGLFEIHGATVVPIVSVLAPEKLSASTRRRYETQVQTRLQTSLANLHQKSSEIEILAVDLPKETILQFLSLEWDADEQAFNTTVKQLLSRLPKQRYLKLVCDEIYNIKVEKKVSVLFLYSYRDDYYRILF

SMILES	IC50 [1] [µM]	IC50 [µM]
COc1ncc(Cl)cc1S(=O)(=O)Nc1ccc(F)c(-c2ccc3c(-n4ccnn4)ncn3c2)c1F [Compound 55-1, 5-chloro-N-[2,4-difluoro-3-[1-(1,2,3-triazol-1-yl)imidazo[1,5-a]pyridin-6-yl]phenyl]-2-methoxypyridine-3-sulfonamide]	< 0.05	
Cc1ncc(Cl)cc1S(=O)(=O)Nc1ccc(F)c([C@@H]2CCc3c(-c4ncc[nH]4)ncn3C2)c1F (single isomer, unassigned) [Compound 84-2]	< 0.05	
CNC(=O)c1ncn2c1CO[C@H](c1c(F)ccc(NS(=O)(=O)c3cc(Cl)cnc3OC)c1F)C2 [Compound 154-2, (6R)-6-[3-(5-chloro-2-methoxypyridine-3-sulfonamido)-2,6-difluorophenyl]-N-methyl-5H,6H,8H-imidazo[4,3-c][1,4]oxazine-1-carboxamide hydrochloride]		0.05 to 0.5
CNC(=O)c1ncn2nc(-c3c(Cl)ccc(NS(=O)(=O)c4cc(Cl)cnc4C)c3F)ccc12 [Compound 138, 2-[6-chloro-3-(5-chloro-2-methylpyridine-3-sulfonamido)-2-fluorophenyl]-N-methylimidazo[1,5-b]pyridazine-5-carboxamide]	< 0.05	
CNC(=O)c1ncn2c(F)c(-c3c(F)ccc(NS(=O)(=O)c4cc(F)cnc4OC)c3F)ncc12 [Compound 170, 6-[2,6-difluoro-3-(5-fluoro-2-methoxypyridine-3-sulfonamido)phenyl]-5-fluoro-N-methylimidazo[1,5-a]pyrazine-1-carboxamide]		0.05 to 0.5
COc1ncc(Cl)cc1S(=O)(=O)Nc1ccc(F)c(-c2cn3cnc(C(=O)NCCS(C)(=O)=O)c3cn2)c1F [Compound 164, 6-[3-(5-chloro-2-methoxypyridine-3-sulfonamido)-2,6-difluorophenyl]-N-(2-methanesulfonylethyl)imidazo[1,5-a]pyrazine-1-carboxamide]	< 0.05	
COc1ncc(F)cc1S(=O)(=O)Nc1ccc(F)c(-c2ccc3c(-c4nc5c([nH]4)CCCC5)ncn3c2)c1F [Compound 148, N-(2,4-difluoro-3-(1-(4,5,6,7-tetrahydro-1H-benzo[d]imidazol-2-yl)imidazo[1,5-a]pyridin-6-yl)phenyl)-5-fluoro-2-methoxypyridine-3-sulfonamide]	< 0.05	
CNC(=O)c1ncn2nc(-c3c(F)ccc(NS(=O)(=O)c4cc(F)cnc4C)c3F)ccc12 [Compound 12, 2-[2,6-difluoro-3-(5-fluoro-2-methylpyridine-3-sulfonamido)phenyl]-N-methylimidazo[1,5-b]pyridazine-5-carboxamide]	< 0.05	
Cc1ncc(F)cc1S(=O)(=O)Nc1ccc(F)c(-c2ccc3c(-c4ccno4)ncn3c2)c1F [Compound 125, N-[2,4-difluoro-3-[1-(1,2-oxazol-5-yl)imidazo[1,5-a]pyridin-6-yl]phenyl]-5-fluoro-2-methylpyridine-3-sulfonamide]	< 0.05	
CNC(=O)c1ncn2c(F)c(-c3c(F)ccc(NS(=O)(=O)c4cc(F)cnc4C)c3F)ncc12 [Compound 184, 6-[2,6-difluoro-3-(5-fluoro-2-methylpyridine-3-sulfonamido)phenyl]-5-fluoro-N-methylimidazo[1,5-a]pyrazine-1-carboxamide]		0.05 to 0.5
COc1ncc(C#N)cc1S(=O)(=O)Nc1ccc(F)c(-c2ccc3c(-c4nnc[nH]4)ncn3c2)c1F [Compound 71, 5-cyano-N-[2,4-difluoro-3-[1-(4H-1,2,4-triazol-3-yl)imidazo[1,5-a]pyridin-6-yl]phenyl]-2-methoxypyridine-3-sulfonamide]	< 0.05	
COc1ncc(Cl)cc1S(=O)(=O)Nc1ccc(F)c(-c2ccc3c(-c4nnc(C)[nH]4)ncn3c2)c1F [Compound 57, 5-chloro-N-[2,4-difluoro-3-[1-(5-methyl-4H-1,2,4-triazol-3-yl)imidazo[1,5-a]pyridin-6-yl]phenyl]-2-methoxypyridine-3-sulfonamide]	< 0.05	
CNC(=O)c1ncn2c1CCC(c1c(Cl)ccc(NS(=O)(=O)c3cc(F)cnc3OC)c1F)C2 (stereo in doubt) [Compound 155-1, (6R)-6-[6-chloro-2-fluoro-3-(5-fluoro-2-methoxypyridine-3-sulfonamido)phenyl]-N-methyl-5H,6H,7H,8H-imidazo[1,5-a]pyridine-1-carboxamide]	< 0.05	
COc1ncc(F)cc1S(=O)(=O)Nc1ccc(F)c(-c2ccn3c(-c4ncc[nH]4)ncc3c2)c1F [Compound 36, N-[2,4-difluoro-3-[3-(1H-imidazol-2-yl)imidazo[1,5-a]pyridin-7-yl]phenyl]-5-fluoro-2-methoxypyridine-3-sulfonamide]	< 0.05	
Cc1ncc(F)cc1S(=O)(=O)Nc1ccc(F)c([C@@H]2CCc3c(-c4ncc[nH]4)ncn3C2)c1F [Compound 80-2, N-[2,4-difluoro-3-[(6S)-1-(1H-imidazol-2-yl)-5H,6H,7H,8H-imidazo[1,5-a]pyridin-6-yl]phenyl]-5-fluoro-2-methylpyridine-3-sulfonamide]	< 0.05	
CNC(=O)c1ncn2c(F)c(-c3c(F)ccc(NS(=O)(=O)c4cc(Cl)cnc4OC)c3F)ncc12 [Compound 160, 6-[3-(5-chloro-2-methoxypyridine-3-sulfonamido)-2,6-difluorophenyl]-5-fluoro-N-methylimidazo[1,5-a]pyrazine-1-carboxamide]	< 0.05	
COc1ncc(Cl)cc1S(=O)(=O)Nc1ccc(F)c(-c2cn3cnc(-c4nnc(C)[nH]4)c3cn2)c1F [Compound 124, 5-chloro-N-[2,4-difluoro-3-[1-(5-methyl-4H-1,2,4-triazol-3-yl)imidazo[1,5-a]pyrazin-6-yl]phenyl]-2-methoxypyridine-3-sulfonamide]	< 0.05	
COc1ncc(C#N)cc1S(=O)(=O)Nc1ccc(F)c(-c2cn3cnc(-c4ncc[nH]4)c3cn2)c1F [Compound 69, 5-cyano-N-[2,4-difluoro-3-[1-(1H-imidazol-2-yl)imidazo[1,5-a]pyrazin-6-yl]phenyl]-2-methoxypyridine-3-sulfonamide]	< 0.05	
COc1ncc(C#N)cc1S(=O)(=O)Nc1ccc(F)c(-c2ccc3c(-c4nc5c([nH]4)CCCC5)ncn3c2)c1F [Compound 123, 5-cyano-N-[2,4-difluoro-3-[1-(4,5,6,7-tetrahydro-1H-1,3-benzodiazol-2-yl)imidazo[1,5-a]pyridin-6-yl]phenyl]-2-methoxypyridine-3-sulfonamide]	< 0.05	
COc1ncc(Cl)cc1S(=O)(=O)Nc1ccc(F)c(-c2cn3cnc(C(=O)NCCN(C)C)c3cn2)c1F [Compound 179, 6-[3-(5-chloro-2-methoxypyridine-3-sulfonamido)-2,6-difluorophenyl]-N-[2-(dimethylamino)ethyl]imidazo[1,5-a]pyrazine-1-carboxamide]		0.05 to 0.5
COc1ncc(F)cc1S(=O)(=O)Nc1ccc(F)c(-c2cn3cnc(-c4nc(Cc5ccccc5)c[nH]4)c3cn2)c1F [Compound 178, N-[3-[1-(4-benzyl-1H-imidazol-2-yl)imidazo[1,5-a]pyrazin-6-yl]-2,4-difluorophenyl]-5-fluoro-2-methoxypyridine-3-sulfonamide]	< 0.05	
COc1ncc(Cl)cc1S(=O)(=O)Nc1ccc(F)c(-c2ccc3c(-c4nnc(C(F)(F)F)[nH]4)ncn3c2)c1F [Compound 102, 5-chloro-N-(2,4-difluoro-3-[1-[5-(trifluoromethyl)-4H-1,2,4-triazol-3-yl]imidazo[1,5-a]pyridin-6-yl]phenyl)-2-methoxypyridine-3-sulfonamide]		0.05 to 0.5
COc1ncc(C#N)cc1S(=O)(=O)Nc1ccc(F)c(-c2ccc3c(-c4ccn(C)n4)ncn3c2)c1F [Compound 53, 5-cyano-N-[2,4-difluoro-3-[1-(1-methylpyrazol-3-yl)imidazo[1,5-a]pyridin-6-yl]phenyl]-2-methoxypyridine-3-sulfonamide]		0.05 to 0.5
Cc1nnc(-c2ncn3c2CC[C@@H](c2c(F)ccc(NS(=O)(=O)c4cc(Cl)cnc4C)c2F)C3)[nH]1 [Compound 136-1, 5-chloro-N-[2,4-difluoro-3-[(6S)-1-(5-methyl-4H-1,2,4-triazol-3-yl)-5H,6H,7H,8H-imidazo[1,5-a]pyridin-6-yl]phenyl]-2-methylpyridine-3-sulfonamide]	< 0.05	
COc1ncc(C#N)cc1S(=O)(=O)Nc1ccc(F)c(-c2ccc3c(-c4nc(C)c(C)[nH]4)ncn3c2)c1F [Compound 126, 5-cyano-N-[3-[1-(4,5-dimethyl-1H-imidazol-2-yl)imidazo[1,5-a]pyridin-6-yl]-2,4-difluorophenyl]-2-methoxypyridine-3-sulfonamide]	< 0.05	
CNC(=O)c1ncn2cc(-c3c(F)ccc(NS(=O)(=O)c4cc(Cl)cnc4OCc4ccccc4)c3F)ncc12 [Compound 183, 6-[3-[2-(benzyloxy)-5-chloropyridine-3-sulfonamido]-2,6-difluorophenyl]-N-methylimidazo[1,5-a]pyrazine-1-carboxamide]	> 1	
COc1ncc(F)cc1S(=O)(=O)Nc1ccc(F)c([C@H]2CCc3c(-c4nnc(C)[nH]4)ncn3C2)c1F [Compound 131-2, N-[2,4-difluoro-3-[(6R)-1-(5-methyl-4H-1,2,4-triazol-3-yl)-5H,6H,7H,8H-imidazo[1,5-a]pyridin-6-yl]phenyl]-5-fluoro-2-methoxypyridine-3-sulfonamide]	< 0.05	
CNC(=O)c1ncn2cc(-c3c(F)ccc(NS(=O)(=O)c4cc(Cl)cnc4OCC(C)C)c3F)ncc12 [Compound 176, 6-[3-[5-chloro-2-(2-methylpropoxy)pyridine-3-sulfonamido]-2,6-difluorophenyl]-N-methylimidazo[1,5-a]pyrazine-1-carboxamide]		0.5 to 1
COc1ncc(Cl)cc1S(=O)(=O)Nc1ccc(F)c([C@H]2CCc3c(-c4nnc(C)[nH]4)ncn3C2)c1F [Compound 130-2, 5-chloro-N-[2,4-difluoro-3-[(6R)-1-(5-methyl-4H-1,2,4-triazol-3-yl)-5H,6H,7H,8H-imidazo[1,5-a]pyridin-6-yl]phenyl]-2-methoxypyridine-3-sulfonamide]	< 0.05	
COc1ncc(F)cc1S(=O)(=O)Nc1ccc(F)c(-c2ccc3c(-c4ncc[nH]4)ncn3c2F)c1F [Compound 107, N-[2,4-difluoro-3-[5-fluoro-1-(1H-imidazol-2-yl)imidazo[1,5-a]pyridin-6-yl]phenyl]-5-fluoro-2-methoxypyridine-3-sulfonamide]	< 0.05	
